Test results as given in patent US12653873B2, “Peptide antigens and uses thereof” (HUMANITAS MIRASOLE S.P.A., priority 2019, dated 2026).

Legend:
Assay type in all cases: in vivo, mouse
C57BL6/J mice [1] = experiment: Immunization of healthy mice with single peptides in CFA/IFA, echocardiography; settings: echocardiography at 2, 5 and 9 weeks after first subcutaneous injection; 100 μg peptide in CFA day 0, IFA boost day 21; vs CTR-
Experimental: C57BL6/J 8-week-old male mice were screened at baseline for heart functionality, via echocardiography, and randomly divided into 5 experimental groups. Mice belonging to control group (CTR−, only CFA) were injected subcutaneously (immunized, but without antigen: negative control) with 100 μl Complete Freud's Adjuvant (CFA) at day 0 and boosted with 100 μl of Incomplete Freud's Adjuvant (IFA) on day 21. Mice belonging to group 3 (CTR+) were injected subcutaneously (immunized, known antigen: positive control) with 100 μg of each of the three peptides (SEQ ID NOs. 15-17) derived from beta-adrenergic receptor and listed in the Table of FIG. 4, emulsified in Complete Freud's Adjuvant (CFA) at day 0 and boosted with 100 μg of the three peptides emulsified in Incomplete Freud's Adjuvant (IFA) on day 21. Mice belonging to group 4_A (Peptide 4_A) were injected subcutaneously (immunized) with 100 μg of the peptide of SEQ ID NO. 1, derived from 14-3-3 protein, emulsified in Complete Freud's Adjuvant (CFA) at day 0 and boosted with 100 μg of each of the three peptides emulsified in Incomplete Freud's Adjuvant (IFA) on day 21. Mice belonging to group 4_B (Peptide 4_B) were injected subcutaneously (immunized) with 100 μg of the peptide of SEQ ID NO. 5, derived from Snrpd1 protein, emulsified in Complete Freud's Adjuvant (CFA) at day 0 and boosted with 100 μg of each of the three peptides emulsified in Incomplete Freud's Adjuvant (IFA) on day 21. Mice belonging to group 4_C (Peptide 4_C) were injected subcutaneously (immunized) with 100 μg of the peptide of SEQ ID NO. 14, derived from Atp5o protein, emulsified in Complete Freud's Adjuvant (CFA) at day 0 and boosted with […] of each of the three peptides emulsified in Incomplete Freud's Adjuvant (IFA) on day 21. On day 0 and day 2, all the mice were intraperitoneally injected with 200 ng of Pertussis Toxin. Heart functionality of all mice was analyzed via echocardiography at 2, 5 and 9 weeks after the first subcutaneous injection. In FIG. 7, the results of echocardiography analysis of cardiac functionality parameters % FS and % EF of C57BL6/J mice immunized with the peptide of SEQ ID NO. 1 (14-3-3 protein), the peptide of SEQ ID NO. 5 (Snrpd1 protein), or the peptide of SEQ ID NO. 14 (Atp5o protein) are shown. […] Data are plotted as mean±SEM, (n=4-6). Two-way ANOVA and Tukey's multiple comparison test with matching subjects. * p<0.05, ** p<0.01, ***p<0.001.

C57BL6/J mice [2] = experiment: Immunization of healthy mice with pooled peptides in CFA/IFA, echocardiography; settings: echocardiography at 2, 5 and 9 weeks after first subcutaneous injection; 100 μg of each peptide in CFA day 0, IFA boost day 21; vs CTR- (only CFA)
Experimental: In order to validate the functional relevance of identified antigens recognized by T cells driving HF, the inventors conducted the experiments as described below and schematically represented in FIG. 5.
Briefly, C57BL6/J 8-week-old male mice were screened, via echocardiography, at baseline for heart functionality and randomly divided into three experimental groups. Mice belonging to the negative control group (CTR−, only CFA) were injected subcutaneously (immunized) with 100 μl Complete Freud's Adjuvant (CFA) at day 0 and boosted with 100 μl of Incomplete Freud's Adjuvant (IFA) on day 21, without any antigen. […] Heart functionality of all mice was analyzed via echocardiography at 2, 5 and 9 weeks after the first subcutaneous injection.
The immunization experiments of healthy mice with peptides derived from beta-adrenergic receptor and from 14-3-3, Snrpd1, and Atp5o lead to cardiac dysfunction. […] Left ventricle functionality was measured as % FS (FIG. 6A) and Ejection Fraction (% EF) (FIG. 6B), which measure the volumetric capacity of the left ventricle to pump blood. […]

[3] = tested on: Aldehyde dehydrogenase (ALDH); experiment: Aldefluor FACS analysis of dendritic cells from mesenteric lymph nodes after oral tolerance induction; settings: eight weeks after oral tolerance induction in TAC-operated mice; vs PBS alone
Experimental: Briefly, eight weeks after oral tolerance induction in TAC-operated mice, mesenteric lymph nodes (MLN) were collected and dendritic cells (DC) were isolated for FACS analysis. Aldehyde dehydrogenase (ALDH) production of retinoic acid from the DC was measured via Aldefluor Fluorescent dye. FACS analysis of DC isolated from MLN of mice fed with the peptides of SEQ ID NO. […] Retinoic acid produced by tolerogenic DC contributes to Regulatory T cell (Treg) generation, essential for tolerance induction. […] Data are plotted as mean±SEM, (n=7-8). Unpaired t-test. * p<0.05.

TAC-operated mice = experiment: Oral tolerance protocol followed by induction of Heart Failure via TAC, echocardiography; settings: oral gavage 0.8 mg per day of each peptide for 4 days, TAC on day 7; 8 weeks after surgery; vs PBS alone
Experimental: To assess preventive protection potential of oral tolerance with the newly identified peptides from the development of Heart Failure, the inventors pursued an oral tolerance protocol to induce cardio-specific tolerance for the peptides, followed by active induction of Heart Failure via TAC.
Briefly, C57BL6/J 8-week-old male mice were screened at baseline via echocardiography. Each mouse was orally fed with 0.8 mg of each peptide from group 4: the peptide of SEQ ID NO. 1 (14-3-3 protein), the peptide of SEQ ID NO. 5 (Snrpd1 protein), and the peptide of SEQ ID NO. 14 (Atp5o protein) (i.e. 0.8 mg per day of each peptide, thus 2.4 mg/day in total), diluted in 600 μl of Phosphate Buffered-Saline (PBS) or plain PBS (as control) via oral feeding (oral gavage) for 4 days in a row. Three days after the end of this procedure, on day 7, the mice underwent TAC surgery, to experimentally induce Heart Failure. Echocardiographies were performed on both groups of mice to monitor their cardiac functionality at 2, 4 and 8 weeks after TAC-surgery. […] Data were plotted as mean±SEM, (n=8-11). Two-way ANOVA and Tukey's multiple comparison test with matching subjects. ** p<0.01, ***p<0.001.

Substance: Peptide 4_A: peptide of SEQ ID NO. 1, derived from 14-3-3 protein (LGLALNFSVFYYEIL; listed as Homo sapiens)
- % EF (C57BL6/J mice [1]): significantly reduced
- % FS (C57BL6/J mice [1]): significantly reduced

Substance: Peptide 4_B: peptide of SEQ ID NO. 5, derived from Snrpd1 protein (EPVQLETLSIRGNNIRYFILPDSLP; listed as Homo sapiens)
- % EF (C57BL6/J mice [1]): significantly reduced
- % FS (C57BL6/J mice [1]): significantly reduced

Substance: Peptide 4_C: peptide of SEQ ID NO. 14, derived from mouse Atp5o protein (LTANLMNLLAENGRL; listed as Mus musculus)
- % EF (C57BL6/J mice [1]): significantly reduced
- % FS (C57BL6/J mice [1]): significantly reduced

Substance: Group 4: combination of the three peptides of SEQ ID NOs. 1, 5 and 14, derived from murine 14-3-3, Snrpd1 and Atp5o proteins (chain 1 LGLALNFSVFYYEIL; chain 2 EPVQLETLSIRGNNIRYFILPDSLP; chain 3 LTANLMNLLAENGRL; listed as Homo sapiens, listed as Mus musculus)
- cardiac functionality, % FS (C57BL6/J mice [2]): significant reduction of cardiac functionality
- cardiac functionality, Ejection Fraction (% EF) (C57BL6/J mice [2]): significant reduction of cardiac functionality
- ALDH activity of DC isolated from MLN [3]: significant increase in ALDH activity
- mean fluorescence intensity (MFI) of Aldefluor dye in DC [3]: significant increase
- percentage of ALDH positive DC [3]: significant increase
- cardiac functionality, % EF (TAC-operated mice): significantly better cardiac functionality
- cardiac functionality, % FS (TAC-operated mice): significantly better cardiac functionality
